# Test results: ChEMBL document CHEMBL4420066, “Aryl amine substituted quinoxaline used as anticancer drugs” (2017)
# Activity calls are given as the source filed them. No cut-off for these calls is given here.
# Key:
# HA22T cell line [1] = experiment: Induction of apoptosis in human HA22T cells assessed as induction of DNA fragmentation at 1 uM incubated for 24 hrs by ELISA; type: functional, cell-based
# Hep 3B2 [2] = experiment: Induction of apoptosis in human Hep3B cells assessed as accumulation at subG1 phase at 0.5 to 4 uM by flow cytometry; type: functional, cell-based
# SK-HEP1 [3] = experiment: Induction of apoptosis in human SKHEP1 cells assessed as accumulation at subG1 phase at 0.5 to 4 uM by flow cytometry; type: functional, cell-based
# HA22T cell line [4] = experiment: Induction of apoptosis in human HA22T cells >= 2 uM incubated for 48 hrs by annexin-V-FITC staining based by flow cytometry relative to control; type: functional
# Hep 3B2 [5] = experiment: Induction of necrosis in human Hep3B cells >= 2 uM incubated for 48 hrs by annexin-V-FITC staining based by flow cytometry relative to control; type: functional
# SK-HEP1 [6] = experiment: Induction of apoptosis in human SKHEP1 cells assessed as caspase-3 activation at 0.5 to 4 uM incubated for 48 hrs by Western blotting analysis; type: functional, cell-based
# Homo sapiens [7] = organism: Homo sapiens; experiment: Induction of apoptosis in human PLC5 cells assessed as induction of PARP cleavage at 2 uM in presence of caspase inhibitor Z-VAD-fmk incubated for 48 hrs by Western blotting analysis; type: functional, cell-based
# Homo sapiens [8] = organism: Homo sapiens; experiment: Induction of apoptosis in human PLC5 cells assessed as induction of DNA fragmentation at 1 uM incubated for 24 hrs by ELISA; type: functional, cell-based
# Hep 3B2 [9] = experiment: Inhibition of CIP2A protein expression in human Hep3B cells assessed as CIP2A protein expression ratio level at 0.5 uM by Western blotting analysis (Rvb =1); type: functional
# SK-HEP1 [10] = experiment: Inhibition of CIP2A protein expression in human SKHEP1 cells assessed as CIP2A protein expression ratio level at 1uM by Western blotting analysis (Rvb =1); type: functional
# SK-HEP1 [11] = experiment: Inhibition of CIP2A protein expression in human SKHEP1 cells assessed as CIP2A protein expression ratio level at 2 uM by Western blotting analysis (Rvb =1); type: functional
# [12] = target: Serine/threonine-protein kinase AKT (Homo sapiens) (UniProt P31751+Q9Y243+P31749); experiment: Inhibition of Akt phosphorylation at S473 residue in human HA22T cells at 1 uM by Western blotting analysis; type: cell-based; details: TDE = time-dependent effect
# Homo sapiens [13] = organism: Homo sapiens; experiment: Activation of PP2A in human HA22T cells assessed as increase in protein phosphatase activity at 1 uM incubated for 24 hrs using phosphopeptide substrate incubated for 10 mins by malachite green-phosphate complex assay; type: cell-based
# Hep 3B2 [14] = experiment: Inhibition of PP2A-A protein expression in human Hep3B cells at 1 uM incubated for 24 hrs by Western blotting analysis; type: functional, cell-based
# HA22T cell line [15] = experiment: Inhibition of PP2A-B5 protein expression in human HA22T cells at 1 uM incubated for 24 hrs by Western blotting analysis; type: functional, cell-based
# Homo sapiens [16] = organism: Homo sapiens; experiment: Induction of apoptosis in human PLC5 cells at 2 uM incubated for 24 hrs in presence of 100 nM PP2A inhibitor okadaic acid by annexin-V-FITC staining based by flow cytometry; type: functional, cell-based
# Homo sapiens [17] = organism: Homo sapiens; experiment: Inhibition of human CIP2A gene promoter in human PLC5 cells assessed as inhibition of ELK1 protein expression at 2 uM by Western blotting analysis; type: cell-based
# Homo sapiens [18] = organism: Homo sapiens; experiment: Inhibition of human CIP2A gene promoter in human PLC5 cells assessed as inhibition of ELK1 protein expression by Western blotting analysis; type: cell-based
# Homo sapiens [19] = organism: Homo sapiens; experiment: Induction of apoptosis in human PLC5 cells with ectopic overexpression of GFP-tagged Elk-1 at 2 uM incubated for 24 hrs by annexin-V-FITC staining based by flow cytometry; type: functional, cell-based
# Homo sapiens [20] = organism: Homo sapiens; experiment: Activation of PP2A in human PLC5 cells assessed as minimal concentration causing increase in protein phosphatase activity incubated for 24 hrs using phosphopeptide substrate incubated for 10 mins by malachite green-phosphate complex assay; type: cell-based
# Chain of Serine/threonine-protein kinase AKT (Homo sapiens) (P31749 whole entry, looked up): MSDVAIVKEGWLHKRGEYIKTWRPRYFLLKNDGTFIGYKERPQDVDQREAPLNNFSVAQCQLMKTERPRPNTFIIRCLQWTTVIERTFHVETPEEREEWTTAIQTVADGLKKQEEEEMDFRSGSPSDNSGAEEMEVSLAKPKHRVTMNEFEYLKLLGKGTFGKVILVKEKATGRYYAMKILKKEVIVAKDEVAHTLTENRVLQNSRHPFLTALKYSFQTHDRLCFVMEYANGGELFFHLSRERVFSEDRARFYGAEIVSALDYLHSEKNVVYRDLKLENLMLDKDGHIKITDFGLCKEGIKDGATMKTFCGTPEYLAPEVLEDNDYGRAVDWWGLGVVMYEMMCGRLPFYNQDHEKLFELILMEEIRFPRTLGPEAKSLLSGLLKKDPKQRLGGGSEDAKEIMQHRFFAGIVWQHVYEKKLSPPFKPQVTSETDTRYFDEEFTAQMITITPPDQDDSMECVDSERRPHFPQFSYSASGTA
# Chain of Serine/threonine-protein kinase AKT (Homo sapiens) (P31751 whole entry, looked up): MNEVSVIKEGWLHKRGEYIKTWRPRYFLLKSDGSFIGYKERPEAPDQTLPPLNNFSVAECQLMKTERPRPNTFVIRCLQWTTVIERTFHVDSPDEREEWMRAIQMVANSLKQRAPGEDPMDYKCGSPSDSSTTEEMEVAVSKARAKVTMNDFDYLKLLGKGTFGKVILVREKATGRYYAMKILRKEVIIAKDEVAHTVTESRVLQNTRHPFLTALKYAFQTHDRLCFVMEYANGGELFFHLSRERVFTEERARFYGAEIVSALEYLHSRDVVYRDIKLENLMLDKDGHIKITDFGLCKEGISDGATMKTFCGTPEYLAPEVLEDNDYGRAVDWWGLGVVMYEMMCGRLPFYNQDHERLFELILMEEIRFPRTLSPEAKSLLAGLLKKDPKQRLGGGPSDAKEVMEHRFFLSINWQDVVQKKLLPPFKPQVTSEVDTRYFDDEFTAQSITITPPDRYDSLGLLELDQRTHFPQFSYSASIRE
# Chain of Serine/threonine-protein kinase AKT (Homo sapiens) (Q9Y243 whole entry, looked up): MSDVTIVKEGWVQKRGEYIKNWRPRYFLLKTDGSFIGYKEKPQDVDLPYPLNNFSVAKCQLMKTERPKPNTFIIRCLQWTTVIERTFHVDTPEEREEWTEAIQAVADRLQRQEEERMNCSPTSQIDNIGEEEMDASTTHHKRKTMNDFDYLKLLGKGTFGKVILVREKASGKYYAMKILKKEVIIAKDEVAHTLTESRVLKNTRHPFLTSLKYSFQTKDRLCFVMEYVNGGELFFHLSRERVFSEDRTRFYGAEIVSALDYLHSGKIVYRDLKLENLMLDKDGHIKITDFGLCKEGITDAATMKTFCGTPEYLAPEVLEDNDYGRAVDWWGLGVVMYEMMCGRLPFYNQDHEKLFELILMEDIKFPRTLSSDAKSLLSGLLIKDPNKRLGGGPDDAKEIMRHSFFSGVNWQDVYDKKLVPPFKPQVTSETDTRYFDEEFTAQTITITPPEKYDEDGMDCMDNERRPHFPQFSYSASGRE
structure (smiles),measurement,setting,value
C#Cc1cccc(Nc2nc3ccccc3nc2Nc2cccc(C#C)c2)c1,Activity,HA22T cell line [1],Active
same,Activity,Hep 3B2 [2],Active
same,Activity,SK-HEP1 [3],Active
same,Activity,HA22T cell line [4],50%
same,Activity,Hep 3B2 [5],50%
same,Activity,SK-HEP1 [6],Dose-dependent effect
same,Activity,Homo sapiens [7],inactive
same,Activity,Homo sapiens [8],Active
same,Ratio,Hep 3B2 [9],0.87
same,Ratio,SK-HEP1 [10],0.32
same,Ratio,SK-HEP1 [11],0.21
same,inhibition,[12],Tde
same,Activity,Homo sapiens [13],Active
same,inhibition,Hep 3B2 [14],inactive
same,inhibition,HA22T cell line [15],inactive
same,Activity,Homo sapiens [16],inactive
same,inhibition,Homo sapiens [17],Active
same,inhibition,Homo sapiens [18],Dose-dependent effect
same,Activity,Homo sapiens [19],inactive
same,MEC,Homo sapiens [20],100 to 200 nM
